Assay results from patent publication US7163959B2, “Prostagladin derivatives for the treatment of glaucoma or ocular hypertension” (priority 1990, dated 2007).

Legend:
[1] = system: cynomolgus monkeys; experiment: Intraocular pressure (pneumatonometer) in cynomolgus monkeys; type: in vivo, cynomolgus monkey; conditions: for Intraocular pressure, time after administration 0 hours / Intraocular pressure, time after administration 1–2 hours / Intraocular pressure, time after administration 3–4 hours / Intraocular pressure, time after administration 6 hours: cynomolgus monkeys, experimental eye (E), topical, dose μg: PGF2α-IE 1.5, (1) 3.2, (2) 3.2, (9) 10.4, (10) 3.1, (8) 3.2; for Intraocular pressure, time after administration 0 hours: baseline; for Intraocular pressure lowering effect, in words: monkeys (primates), topical (Table V)
Procedure: (§1) The intraocular pressur (IOP) was determined in animals with a pneumatonometer (Digilab Modular One™, Bio Rad), specially calibrated for the eye of the particular species. The cornea was anaesthetized with 1–2 drops of oxibuprocain before each XOP measurement. In healthy human volunteers IOP was measured with applanation tonometry or with an air puff tonometer (Keeler pulsair). For applanation tonometry either a pneumatonometer (Digilab) or Goldmann's applanation tonometer mounted on a slit lamp microscope was used. The cornea was anaesthetized with oxibuprocain before each measurement with applanation tonometry. No local anaesthesia was employed before measurement with the pulsair tonometer.

[2] = system: rabbit eye; experiment: Conjunctival hyperemia after topical application in rabbits; type: in vivo; conditions: for Degree of hyperemia: topical, conjunctival hyperemia scale 0 to 4, dose 0.5 μg, PGF2α-IE 0.1 μg; for Conjunctival hyperemia, in words: topical (Table IV)
Procedure: Conjunctival hyperemia after topical application of the test substances was evaluated in rabbits. […] Conjunctival hyperemia was evaluated on a scale from 0 to 4, 0 indicating complete absence of any hyperemia, and 4 indicating marked hyperemia with conjunctival chemosis.

[3] = system: cat eye; experiment: Ocular discomfort (irritation) after topical application in cats; conditions: topical (Table III)
Procedure: The ocular discomfort after application of the test substances was evaluated in cats. The behaviour of cats after topical application of the test drug was followed and ocular discomfort was graded on a scale from 0 to 3, 0 indicating complete absence of any signs of discomfort, and 3 indicating maximal irritation as obvious from complete lid closure.
Therefore, the cat eye, being very sensitive to prostaglandins was used for evaluating ocular discomfort and the rabbit eye with pronounced tendency to hyperemic reactions was used for evaluating conjunctival and episcleral hyperemia.

[4] = system: healthy human volunteers; experiment: Ocular side effects (discomfort, hyperemia) in healthy human volunteers; conditions: for Irritating effect (ocular discomfort), in words: healthy human volunteers; for Conjunctival/episcleral hyperemia, in words: in man
[5] = system: healthy human volunteers; experiment: Intraocular pressure (tonometry) in healthy human volunteers; type: in vivo; conditions: for Effect on intraocular pressure, in words: healthy human volunteers (Table VI); for Intraocular pressure, time after administration 0 hours / Intraocular pressure, time after administration 4 hours / Intraocular pressure, time after administration 6 hours / Intraocular pressure, time after administration 8 hours: healthy human volunteers, Exp eye, dose μg: (2) 1, (7) 10, (9) 1, (10) 5; for Intraocular pressure, time after administration 0 hours: baseline; for Intraocular pressure, time after administration 0 hours / Intraocular pressure, time after administration 4 hours / Intraocular pressure, time after administration 6 hours: (3) 10
Procedure: as §1

[6] = system: cat eyes; experiment: Intraocular pressure (pneumatonometer) in cats; type: in vivo; conditions: for Intraocular pressure, time after administration 0 hours / Intraocular pressure, time after administration 1–2 hours / Intraocular pressure, time after administration 3–4 hours / Intraocular pressure, time after administration 6 hours: cat eyes, experimental eye (E), topical, dose μg: (4) 5, (20) 1; for Intraocular pressure, time after administration 0 hours: baseline; for Intraocular pressure lowering effect, in words: cats, topical (Table V)
Procedure: as §1

[7] = system: monkey; conditions: compounds or their esters, Bito et al, 1989; cited from earlier work
[8] = system: man; conditions: clinical studies, Flach and Eliason (1988); cited from earlier work

Molecule	Intraocular pressure, time after administration 0 hours [1]	Intraocular pressure, time after administration 1–2 hours [1] [mmHg]	Intraocular pressure, time after administration 3–4 hours [1] [mmHg]	Intraocular pressure, time after administration 6 hours [1]	Degree of hyperemia [2]	Irritating effect (ocular discomfort), in words [4]	Effect on intraocular pressure, in words [5]	Intraocular pressure, time after administration 0 hours [5] [mmHg]	Intraocular pressure, time after administration 4 hours [5] [mmHg]	Intraocular pressure, time after administration 6 hours [5] [mmHg]	further results
16-[4-(methoxy)-phenyl]-17,18,19,20-tetranor-PGF2α-isopropylester [Substance 8]	E 11.2 ± 0.9 mmHg	10.5 ± 1.3	9.8 ± 1.4	9.2 ± 0.9 mmHg							
16-phenyl-17,18,19,20-tetranor-PGF2α-isopropylester [Substance 1]	E 12.7 ± 1.1 mmHg	11.8 ± 1.1	9.1 ± 0.8	8.4 ± 0.7. mmHg	1.3 ± 0.9						Intraocular pressure lowering effect, in words [1]: reduced the intraocular pressure; Ocular irritation (discomfort), in words [3]: irritating; Ocular irritation (discomfort), in words ([3]; listed as 16-phenyl-17,18,19,20-tetranor-PGF2α-IE): clear ocular discomfort
18-phenyl-19,20-dinor-PGF2α-isopropylester [Substance 10]	E 9.7 ± 0.9 mmHg	9.6 ± 1.1	9.6 ± 0.7	8.8 ± 0.9 mmHg		none of the compounds had any significant irritating effect	significantly reduced the intraocular pressure	14.4 ± 1.0	12.2 ± 1.1	12.4 ± 1.2	Intraocular pressure lowering effect, in words [1]: reduced the intraocular pressure; Intraocular pressure, time after administration 8 hours [5]: 11.9 ± 0.7 mmHg
19-phenyl-20-nor-PGF2α-isopropylester [Substance 20]											Intraocular pressure, time after administration 0 hours [6]: E 16.9 ± 1.0 mmHg; Intraocular pressure, time after administration 1–2 hours [6]: 16.6 ± 0.7 mmHg; Intraocular pressure, time after administration 3–4 hours [6]: 15.8 ± 0.8 mmHg; Intraocular pressure, time after administration 6 hours [6]: 18.1 ± 1.2 mmHg; Intraocular pressure lowering effect, in words [6]: reduced the intraocular pressure
CCCCCC(C=CC1C(O)CC(=O)C1CC=CCCCC(=O)OC(C)C)OC(=O)CC (stereo not shown) [15-propionate-PGE2-IE, reference compound]					2.7 ± 0.3						
CCCCC[C@H](O)/C=C/[C@H]1C=CC(=O)[C@@H]1C/C=C\CCCC(=O)O [PGA2]											IOP effect, in words [7]: lower IOP
CCCCC[C@H](O)/C=C/[C@H]1[C@H](O)CC(=O)[C@@H]1C/C=C\CCCC(=O)O [PGE2]											IOP effect, in words [7]: lower IOP; IOP effect, in words [8]: IOP-lowering effect
CCCCC[C@H](O)/C=C/[C@@H]1[C@@H](C/C=C\CCCC(=O)OC(C)C)[C@@H](O)C[C@H]1O [PGF2α-isopropylester, reference compound]	E 11.4 ± 0.7 mmHg	8.3 ± 0.5	8.0 ± 0.6	9.3 ± 0.8 mmHg	2.8 ± 0.2						
CC(C)OC(=O)CCC/C=C\C[C@@H]1[C@@H](/C=C/[C@@H](O)CCc2ccccc2)[C@H](O)C[C@@H]1O [Substance 2, 17-phenyl-18,19,20-trinor-PGF2α-isopropylester]	E 12.8 ± 0.6 mmHg	11.9 ± 0.5	8.6 ± 0.3	9.5 ± 0.7 mmHg	2.0 ± 0.3	none of the compounds had any significant irritating effect	significantly reduced the intraocular pressure	11.9 ± 1.7	11.0 ± 0.9	10.1 ± 0.7	Intraocular pressure lowering effect, in words [1]: retained IOP lowering effect; Ocular irritation (discomfort), in words [3]: complete loss of ocular irritation; Intraocular pressure, time after administration 8 hours [5]: 9.8 ± 0.7 mmHg
CC(C)OC(=O)CCC/C=C\C[C@@H]1[C@@H](/C=C/C(=O)CCc2ccccc2)[C@H](O)C[C@@H]1O [Substance 3, 15-dehydro-17-phenyl-18,19,20-trinor-PGF2α-isopropylester]					0.7 ± 0.3	none of the compounds had any significant irritating effect	significantly reduced the intraocular pressure	17.7 ± 0.6	14.6 ± 0.2	13.6 ± 0.7	Conjunctival hyperemia, in words [2]: advantageous in this respect; Conjunctival/episcleral hyperemia, in words [4]: very little if any conjunctival/episcleral hyperemia
CC(C)OC(=O)CCC/C=C\C[C@@H]1[C@@H](/C=C/[C@@H](O)COc2ccccc2)[C@H](O)C[C@@H]1O [Substance 4, 16-phenoxy-17,18,19,20-tetranor-PGF2α-isopropylester]											Intraocular pressure, time after administration 0 hours [6]: E 20.5 ± 1.2 mmHg; Intraocular pressure, time after administration 1–2 hours [6]: 25.7 ± 1.2 mmHg; Intraocular pressure, time after administration 3–4 hours [6]: 19.2 ± 1.8 mmHg; Intraocular pressure, time after administration 6 hours [6]: 15.0 ± 1.2 mmHg; Intraocular pressure lowering effect, in words [6]: effectively lowers the intraocular pressure
CC(C)OC(=O)CCC/C=C\C[C@H]1C(=O)C[C@@H](O)[C@@H]1/C=C/[C@@H](O)CCc1ccccc1 [Substance 5, 17-phenyl-18,19,20-trinor-PGE2-isopropylester]					2.7 ± 0.2						Ocular irritation (discomfort), in words [3]: no or very little irritating effect
CC(C)OC(=O)CCC/C=C\C[C@H]1C(=O)C=C[C@@H]1CC[C@@H](O)CCc1ccccc1 [Substance 6, 13,14-dihydro-17-phenyl-18,19,20-trinor-PGA2-isopropylester]					0.3 ± 0.3						Conjunctival hyperemia, in words [2]: advantageous in this respect; Ocular irritation (discomfort), in words [3]: no or very little irritating effect
CC(C)OC(=O)CCC/C=C\C[C@@H]1[C@@H](/C=C/[C@H](O)CCc2ccccc2)[C@H](O)C[C@@H]1O [Substance 7, 15-(R)-17-phenyl-18,19,20-trinor-PGF2α-isopropylester]					2.0 ± 0.0	none of the compounds had any significant irritating effect	significantly reduced the intraocular pressure	12.9 ± 0.9	11.8 ± 0.6	11.0 ± 0.3	Intraocular pressure, time after administration 8 hours [5]: 11.2 ± 1.3 mmHg
CC(C)OC(=O)CCC/C=C\C[C@@H]1[C@@H](CC[C@@H](O)CCc2ccccc2)[C@H](O)C[C@@H]1O [Substance 9, 13,14-dihydro-17-phenyl-18,19,20-trinor-PGF2α-isopropylester]	E 11.1 ± 0.9 mmHg	8.3 ± 0.6	6.9 ± 0.4	7.7 ± 0.8 mmHg	1.3 ± 0.3	none of the compounds had any significant irritating effect	significantly reduced the intraocular pressure	14.2 ± 0.5	13.3 ± 1.1	12.2 ± 0.4	Conjunctival hyperemia, in words [2]: advantageous in this respect; Conjunctival/episcleral hyperemia, in words [4]: very little if any conjunctival/episcleral hyperemia; Intraocular pressure, time after administration 8 hours [5]: 12.5 ± 0.9 mmHg
